Assay results as given in patent US20210038587A1, “METHODS AND COMPOSITIONS FOR TREATING NON-ERK MAPK PATHWAY INHIBITOR-RESISTANT CANCERS” (BIOMED VALLEY DISCOVERIES, INC., priority 2013, published 2021).

How the values were obtained:
Test in all cases: Reverse Phase Protein Analysis (RPPA)
[1] = tested on: Colo205; type: cell-based, human; conditions: % change from DMSO (matched cell line)
[2] = tested on: AN3Ca; type: cell-based; conditions: % change from DMSO (matched cell line)
Procedure: (§1) Control wells were treated with DMSO at 0.1% (v/v) for 6 hours prior to cell lysate generation. Samples were then analyzed using reverse-phase protein microarray technology (Theranostics Health).
(§2) Cell lines with common alterations in BRAF and RAS were assayed: BRAF^V600E mutant lines A375, Colo205, and HT29; KRAS^G12C-mutant cell line MIAPACa-2; KRAS^G13D-mutant cell line HCT116; and AN3Ca with atypical HRAS^F82L mutation. Changes in protein levels are shown as a percentage change from dimethyl sulfoxide (DMSO)-treated parental control (FIG. 32A and Table 23).

[3] = tested on: HT29; type: cell-based; conditions: % change from DMSO (matched cell line)
Procedure: as §1, §2

[4] = tested on: MIAPaCa-2; type: cell-based; conditions: MIAPaca2; % change from DMSO (matched cell line)

## CC(C)Nc1cc(-c2c[nH]c(C(=O)N[C@H](CO)c3cccc(Cl)c3)c2)c(Cl)cn1 [BVD-523]
[1]
  Avg (4ebp1 T70): −36.35%
  Avg (Akt S473): −5.78%
  Avg (Akt): −3.85%
  Avg (Bad S136): 5.05%
  Avg (Bad S155): −18.18%
  Avg (Bak): 3.79%
  Avg (Bax): 0.28%
  Avg (Bcl 2): −0.13%
  Avg (Bcl2 S70): −10.2%
  Avg (Bcl 2 T56): −11.84%
  Avg (Bim): 41.73%
  Avg (CREB S133): −2.67%
  Avg (Caspase 3 CL D175): −3.18%
  Avg (Caspase 7 Cl D198): 6.76%
  Avg (Chk1): −2.86%
  Avg (Chk1 S345): −4.63%
  Avg (Cyclin D1): −23.65%
  Avg (ERK 1 2): −18.83%
  Avg (ERK 1 2 T202 Y204): 14.39%
  Avg (MAK1 S360): 14.69%
  Avg (Mcl1): −2.7%
  Avg (Raptor S792): 0.41%
  Avg (Raptor): −7.14%
  Avg (Rictor): −5.21%
  Avg (Stat1): 0.53%
  Avg (Stat3): −2.58%
  Avg (bad S112): −31.51%
  Avg (c Fos): −12.25%
  Avg (mTOR S2448): −23.51%
  Avg (mTOR S2481): −1.33%
  Avg (mTOR): 12.77%
  Avg (p70 S6 Kinase): 0.14%
  Avg (p90 RSK S380): −50.84%
  Avg(S6 Ribo Prot S235 236): −96.15%
  Avg(S6 Ribo Prot S240 244): −97.33%
  Avg(Tuberin TSC2 Y1571): −3.48%
  Avg(p70 S6 Kinase S371 S394): −18.11%
  Avg(p70 S6 Kinase T389 T412): −36.4%
[2]
  Avg (4ebp1 T70): 32.17%
  Avg (Akt S473): 52.11%
  Avg (Akt): −22.43%
  Avg (Bad S136): −1.02%
  Avg (Bad S155): 0.66%
  Avg (Bak): 3.38%
  Avg (Bax): −10.47%
  Avg (Bcl 2): −16.83%
  Avg (Bcl2 S70): −14.81%
  Avg (Bcl 2 T56): −12.85%
  Avg (Bim): −12.57%
  Avg (CREB S133): 1.03%
  Avg (Caspase 3 CL D175): −10.8%
  Avg (Caspase 7 Cl D198): −12.35%
  Avg (Chk1): −8.45%
  Avg (Chk1 S345): −13.34%
  Avg (Cyclin D1): −0.69%
  Avg (ERK 1 2): −9.05%
  Avg (ERK 1 2 T202 Y204): 733.27%
  Avg (MAK1 S360): 0.49%
  Avg (Mcl1): −4.9%
  Avg (Raptor S792): −8.47%
  Avg (Raptor): −13.82%
  Avg (Rictor): −4.52%
  Avg (Stat1): −5.65%
  Avg (Stat3): −4.97%
  Avg (bad S112): −54.1%
  Avg (c Fos): −5.15%
  Avg (c Myc): −0.58%
  Avg (mTOR S2448): −10.79%
  Avg (mTOR S2481): 2.75%
  Avg (mTOR): 5.58%
  Avg (p70 S6 Kinase): −10.27%
  Avg (p90 RSK S380): −28.11%
  Avg(S6 Ribo Prot S235 236): −43.41%
  Avg(S6 Ribo Prot S240 244): −22.2%
  Avg(Tuberin TSC2 Y1571): 2.86%
  Avg(p70 S6 Kinase S371 S394): 32.26%
  Avg(p70 S6 Kinase T389 T412): −14.78%
[3]
  Avg (4ebp1 T70): −41.47%
  Avg (Akt S473): −3.06%
  Avg (Akt): −13.41%
  Avg (Bad S136): 10.73%
  Avg (Bad S155): −25.9%
  Avg (Bak): −1.42%
  Avg (Bax): 8.39%
  Avg (Bcl 2): 10.68%
  Avg (Bcl2 S70): 2.83%
  Avg (Bcl 2 T56): −8.18%
  Avg (Bim): 2.81%
  Avg (CREB S133): −3.46%
  Avg (Caspase 3 CL D175): −7.03%
  Avg (Caspase 7 Cl D198): −6.93%
  Avg (Chk1): 7.4%
  Avg (Chk1 S345): −13.48%
  Avg (Cyclin D1): −37.21%
  Avg (ERK 1 2): −44.3%
  Avg (ERK 1 2 T202 Y204): 54.82%
  Avg (MAK1 S360): 1.49%
  Avg (Mcl1): −2.83%
  Avg (Raptor S792): −10.48%
  Avg (Raptor): −8.53%
  Avg (Rictor): −18.76%
  Avg (Stat1): 4.74%
  Avg (Stat3): −6.46%
  Avg (bad S112): −20.66%
  Avg (c Fos): −13.48%
  Avg (c Myc): 17.85%
  Avg (mTOR S2448): −20.68%
  Avg (mTOR S2481): −8.64%
  Avg (mTOR): 5.02%
  Avg (p70 S6 Kinase): −10.64%
  Avg (p90 RSK S380): −60.5%
  Avg(S6 Ribo Prot S235 236): −44.68%
  Avg(S6 Ribo Prot S240 244): −25.67%
  Avg(Tuberin TSC2 Y1571): 0.66%
  Avg(p70 S6 Kinase S371 S394): −35.94%
  Avg(p70 S6 Kinase T389 T412): −24.58%
[4]
  Avg (4ebp1 T70): −9.42%
  Avg (Akt S473): 9.9%
  Avg (Akt): 23.63%
  Avg (Bad S136): −4.12%
  Avg (Bad S155): −5.65%
  Avg (Bak): −15.15%
  Avg (Bax): 23.44%
  Avg (Bcl 2): 5.86%
  Avg (Bcl2 S70): 0.89%
  Avg (Bcl 2 T56): −1.78%
  Avg (Bim): −12.51%
  Avg (CREB S133): −19.26%
  Avg (Caspase 3 CL D175): 22.35%
  Avg (Caspase 7 Cl D198): −6.44%
  Avg (Chk1): −3.51%
  Avg (Chk1 S345): 1.2%
  Avg (Cyclin D1): −37.9%
  Avg (ERK 1 2): −40.33%
  Avg (ERK 1 2 T202 Y204): 209.14%
  Avg (MAK1 S360): −10.72%
  Avg (Mcl1): −7.27%
  Avg (Raptor S792): 5.95%
  Avg (Raptor): 21.15%
  Avg (Stat1): 8.62%
  Avg (Stat3): −1.23%
  Avg (bad S112): −30.29%
  Avg (c Fos): −18.44%
  Avg (c Myc): −8.77%
  Avg (mTOR S2448): −11.73%
  Avg (mTOR S2481): −0.24%
  Avg (mTOR): −3.27%
  Avg (p70 S6 Kinase): −3.59%
  Avg (p90 RSK S380): −35%
  Avg(S6 Ribo Prot S235 236): −79.46%
  Avg(S6 Ribo Prot S240 244): −88.03%
  Avg(Tuberin TSC2 Y1571): 1.7%
  Avg(p70 S6 Kinase S371 S394): −28.27%
  Avg(p70 S6 Kinase T389 T412): −39.23%
